Each block holds one molecule with its values, some of them ahead of it. Calls of active or inactive are those of the source.
Columns and labels:
[1] = target: Induced myeloid leukemia cell differentiation protein Mcl-1 (Homo sapiens, UniProt Q07820); format: functional
[2] = target: T1, Carboxy-terminal domain RNA polymerase II polypeptide A small phosphatase 1 (Homo sapiens, UniProt Q9GZU7); experiment: CTDSP1 inhibitors, concentration-response, biochemical, absorbance readout, ultra-high-throughput screen actives (AID 540297); format: functional
T1 sequence (Q9GZU7 whole entry): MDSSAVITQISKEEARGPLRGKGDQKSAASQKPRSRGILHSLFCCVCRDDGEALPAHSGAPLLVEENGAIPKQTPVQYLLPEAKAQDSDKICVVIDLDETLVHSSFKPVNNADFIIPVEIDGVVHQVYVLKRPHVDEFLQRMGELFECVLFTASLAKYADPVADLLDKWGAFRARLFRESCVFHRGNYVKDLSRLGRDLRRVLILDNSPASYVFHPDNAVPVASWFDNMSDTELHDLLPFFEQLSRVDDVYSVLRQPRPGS

[3] = tested on: Streptococcus sp. 'group A'; experiment: Streptococcus pyogenes SK(-)GAS viability under kanamycin – luminescence, BacTiterGlo, confirmation, counter-screen for streptokinase expression inhibitor project, dose response (AID 1900); format: functional, organism-based
Streptococcus = experiment: GAS UMAA2166 growth inhibition – luminescence, BacTiterGlo, counter-screen for streptokinase expression inhibitor project, dose response (AID 1915); format: functional, organism-based;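 further: potency for reduction of bacterial viability or growth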
[4] = viability loss in THP-1 monocytes – THP-1 cells, cytotoxicity control for Vif-APOBEC3G degradation inhibitor project, dose response (AID 1117359); format: functional; conditions: THP-1
Aminopeptidase N = target: T2, Aminopeptidase N (Plasmodium falciparum FcB1/Columbia, UniProt O96935); experiment: malaria alanyl aminopeptidase activity blockers – biochemical, fluorogenic H-Leu-NHMec substrate, 1536-well (AID 1445); set-up: species or system Plasmodium falciparum 3D7, 3D7
T2 sequence (O96935 whole entry): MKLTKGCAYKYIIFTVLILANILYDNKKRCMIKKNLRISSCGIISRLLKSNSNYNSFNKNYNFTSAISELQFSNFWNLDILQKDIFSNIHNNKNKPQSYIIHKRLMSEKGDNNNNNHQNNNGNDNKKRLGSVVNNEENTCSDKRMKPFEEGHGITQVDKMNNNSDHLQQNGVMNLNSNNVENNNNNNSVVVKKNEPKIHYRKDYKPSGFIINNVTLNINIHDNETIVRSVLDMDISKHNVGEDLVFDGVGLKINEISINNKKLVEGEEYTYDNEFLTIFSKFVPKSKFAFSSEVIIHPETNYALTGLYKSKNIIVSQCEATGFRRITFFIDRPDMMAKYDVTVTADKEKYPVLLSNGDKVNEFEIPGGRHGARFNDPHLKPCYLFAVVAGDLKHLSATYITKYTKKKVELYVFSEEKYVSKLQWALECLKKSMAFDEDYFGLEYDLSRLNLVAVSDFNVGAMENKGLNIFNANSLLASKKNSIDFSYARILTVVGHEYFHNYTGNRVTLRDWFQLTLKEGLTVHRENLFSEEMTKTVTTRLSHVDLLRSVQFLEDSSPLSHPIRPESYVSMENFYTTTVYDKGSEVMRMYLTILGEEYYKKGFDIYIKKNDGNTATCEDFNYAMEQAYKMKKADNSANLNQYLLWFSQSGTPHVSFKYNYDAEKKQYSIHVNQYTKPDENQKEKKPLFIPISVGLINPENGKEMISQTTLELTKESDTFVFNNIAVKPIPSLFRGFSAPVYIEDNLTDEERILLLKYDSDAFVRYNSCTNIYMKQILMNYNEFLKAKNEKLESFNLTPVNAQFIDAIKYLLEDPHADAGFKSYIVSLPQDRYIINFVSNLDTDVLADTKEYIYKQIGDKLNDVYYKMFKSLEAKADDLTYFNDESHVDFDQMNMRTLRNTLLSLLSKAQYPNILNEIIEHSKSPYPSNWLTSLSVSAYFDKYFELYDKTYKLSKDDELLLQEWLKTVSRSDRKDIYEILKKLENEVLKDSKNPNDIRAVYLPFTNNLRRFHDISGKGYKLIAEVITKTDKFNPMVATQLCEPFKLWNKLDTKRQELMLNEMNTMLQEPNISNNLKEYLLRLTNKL

Genome polyprotein = Genome polyprotein (dengue virus type 2, UniProt P29990); experiment: flavivirus cap methylation enzyme inhibition – biochemical, confirmation dose response, primary screen (AID 588689); format: functional
Paired box protein Pax-8 = Paired box protein Pax-8 (Homo sapiens, UniProt Q06710); experiment: PAX8 transcriptional activity inhibition in RMG-I – RMG-I cells, luciferase, cherry-pick, dose response (AID 687027); format: functional, cell-based;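 further: luciferase reporter driven by Pax8 target thyroperoxidase promoter measured by SteadyGlo luminescence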
[5] = OVCAR-3 cell viability loss – plate reader, dry powder samples, PAX8 inhibitor project, dose response (AID 743044); format: functional, cell-based
[6] = OVCAR8 cell viability loss – plate reader, dry powder samples, PAX8 project, dose response (AID 743197); format: functional, cell-based; conditions: OVCAR-8
Cytochrome P450 3A4 = Cytochrome P450 3A4 (Homo sapiens, UniProt P08684); conditions: Potency;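 further: confirmatory qHTS run detecting inhibitors and substrates of CYP3A4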
Chain of Cytochrome P450 3A4 (P08684 whole entry): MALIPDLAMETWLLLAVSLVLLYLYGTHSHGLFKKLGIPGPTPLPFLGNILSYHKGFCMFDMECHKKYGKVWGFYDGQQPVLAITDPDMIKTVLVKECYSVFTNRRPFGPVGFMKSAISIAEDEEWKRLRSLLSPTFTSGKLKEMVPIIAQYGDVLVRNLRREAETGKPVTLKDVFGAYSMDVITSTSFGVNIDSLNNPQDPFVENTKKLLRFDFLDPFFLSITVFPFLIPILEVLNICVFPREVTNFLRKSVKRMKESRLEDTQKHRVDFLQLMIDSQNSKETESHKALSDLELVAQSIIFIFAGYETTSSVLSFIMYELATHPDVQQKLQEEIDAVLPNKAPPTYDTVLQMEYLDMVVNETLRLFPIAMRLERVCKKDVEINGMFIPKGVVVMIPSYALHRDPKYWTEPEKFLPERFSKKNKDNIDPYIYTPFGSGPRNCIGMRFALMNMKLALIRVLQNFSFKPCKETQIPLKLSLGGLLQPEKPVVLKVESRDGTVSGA

Chain of Genome polyprotein (P29990 2492-3391 limits assumed): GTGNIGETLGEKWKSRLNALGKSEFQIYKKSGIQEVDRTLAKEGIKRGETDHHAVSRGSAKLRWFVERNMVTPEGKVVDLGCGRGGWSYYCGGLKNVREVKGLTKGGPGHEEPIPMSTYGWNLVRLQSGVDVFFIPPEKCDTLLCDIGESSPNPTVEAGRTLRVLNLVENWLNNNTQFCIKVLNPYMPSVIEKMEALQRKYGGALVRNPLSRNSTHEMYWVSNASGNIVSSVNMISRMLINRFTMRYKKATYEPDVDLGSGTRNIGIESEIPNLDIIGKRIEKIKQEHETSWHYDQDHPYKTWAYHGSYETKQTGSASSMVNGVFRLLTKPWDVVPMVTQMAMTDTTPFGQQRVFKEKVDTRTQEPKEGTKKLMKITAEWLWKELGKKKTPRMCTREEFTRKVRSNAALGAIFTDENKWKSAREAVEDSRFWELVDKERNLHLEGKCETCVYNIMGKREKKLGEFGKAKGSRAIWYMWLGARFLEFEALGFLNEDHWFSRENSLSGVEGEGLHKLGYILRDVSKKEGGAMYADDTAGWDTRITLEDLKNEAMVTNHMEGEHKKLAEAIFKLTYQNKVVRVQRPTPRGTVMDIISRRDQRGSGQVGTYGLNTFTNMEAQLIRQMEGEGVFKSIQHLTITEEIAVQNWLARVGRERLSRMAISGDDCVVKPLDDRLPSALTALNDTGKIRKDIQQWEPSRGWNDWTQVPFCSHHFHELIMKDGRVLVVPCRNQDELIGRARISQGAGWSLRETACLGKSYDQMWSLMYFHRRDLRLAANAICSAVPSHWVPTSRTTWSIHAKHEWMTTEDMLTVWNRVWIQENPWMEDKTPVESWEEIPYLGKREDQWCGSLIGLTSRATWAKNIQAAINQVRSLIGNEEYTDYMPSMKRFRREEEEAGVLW
Chain of Paired box protein Pax-8 (Q06710 whole entry): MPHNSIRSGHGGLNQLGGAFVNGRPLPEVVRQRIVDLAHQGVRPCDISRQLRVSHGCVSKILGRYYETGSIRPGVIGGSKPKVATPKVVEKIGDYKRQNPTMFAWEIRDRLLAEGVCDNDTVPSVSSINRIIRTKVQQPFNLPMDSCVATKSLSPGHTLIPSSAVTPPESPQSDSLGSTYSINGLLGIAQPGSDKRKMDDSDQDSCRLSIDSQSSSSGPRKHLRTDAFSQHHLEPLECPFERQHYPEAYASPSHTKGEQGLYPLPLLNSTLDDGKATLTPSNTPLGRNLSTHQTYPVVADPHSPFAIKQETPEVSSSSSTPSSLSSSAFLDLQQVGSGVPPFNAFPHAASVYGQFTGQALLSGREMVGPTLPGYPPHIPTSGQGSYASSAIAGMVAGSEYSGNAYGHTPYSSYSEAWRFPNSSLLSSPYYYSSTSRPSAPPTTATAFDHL
Chain of Induced myeloid leukemia cell differentiation protein Mcl-1 (Q07820 whole entry, the tested form may be a part): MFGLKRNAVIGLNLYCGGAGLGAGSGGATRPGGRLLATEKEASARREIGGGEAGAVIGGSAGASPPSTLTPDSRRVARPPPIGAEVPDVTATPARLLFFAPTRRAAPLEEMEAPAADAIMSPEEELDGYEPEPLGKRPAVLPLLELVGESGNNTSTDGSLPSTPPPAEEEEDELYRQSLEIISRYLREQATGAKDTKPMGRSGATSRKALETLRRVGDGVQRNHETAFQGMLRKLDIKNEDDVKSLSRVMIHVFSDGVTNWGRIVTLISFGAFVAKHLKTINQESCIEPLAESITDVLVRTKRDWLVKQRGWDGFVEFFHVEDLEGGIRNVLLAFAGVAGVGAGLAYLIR

SMILES: CCCN=C1C(=O)C2=C(C(O)=C1C)N1CC3NC3[C@@]1(OC)C2COC(N)=O (stereo not given in full)
EC50 [3]: < 0.06 µM (active) | EC50 (Streptococcus): 0.153 µM (active) | CC50 [4]: 1.52 µM (active)

SMILES: Cn1c(SCC(=O)Nc2nncs2)nnc1C1CC1
IC50 [2]: 4.69 µM (active)

SMILES: C[C@@H]1CN([C@H](C)CO)S(=O)(=O)c2ccc(-c3ccc(C#N)cc3)cc2O[C@@H]1CN(C)Cc1cccc(F)c1
AC50 (Paired box protein Pax-8): 3.4 µM (active) | AC50 [5]: 29.1 µM (active) | AC50 [6]: 25.8 µM (active)

SMILES: Oc1ccc2c(c1)OCO2
AC50 (Cytochrome P450 3A4): 15.8 µM (inconclusive)

SMILES: O=C(NC1CCN(C(=S)NCc2ccco2)CC1)c1cccc(F)c1
IC50 (Aminopeptidase N): 79.9 µM (active)

SMILES: CC(C)(C)CC(C)(C)c1ccc(OCCO)cc1 [TRITON X]
AC50 (Cytochrome P450 3A4): 31.6 µM (inconclusive)

SMILES: CCOC(=O)C(Cc1ccc(O)cc1)NC(C)=O (stereo not given) [ACETYL TYROSINE ETHYL ESTER]
AC50 (Cytochrome P450 3A4): 25.1 µM (inconclusive)

Next, values leading:

IC50 [1]: 4.55 µM (active) | IC50 [2]: 7.93 µM (active)
SMILES: Cc1ccc(NC(=O)CN2C(=O)N/C(=C/c3cc(C)n(-c4ccc(C(=O)O)cc4)c3C)C2=O)cc1

IC50 (Aminopeptidase N): 35.8 µM (active) | IC50 (Genome polyprotein): 81.9 µM (active)
SMILES: Cc1cc(NS(=O)(=O)c2ccc(NC(=O)CSc3nc(O)c4c(C)c(C)sc4n3)cc2)no1

IC50 (Aminopeptidase N): 79.3 µM (active)
SMILES: Cc1ccccc1N(CC(=O)NC(C)(C)C)C(=O)C[S+]([O-])CC(=O)Nc1ccc2c(c1)OCO2 (stereo not given)

IC50 [2]: 5.84 µM (active)
SMILES: Nc1cc(C(=O)OCC(=O)c2ccc(CC(=O)N3CCOCC3)s2)ccc1Cl

IC50 (Aminopeptidase N): 33.1 µM (active) | IC50 (Genome polyprotein): 71.5 µM (active)
SMILES: Cc1ccc(/C=C2\SC(NS(=O)(=O)c3cccs3)=NC2=O)cc1

IC50 [2]: 10.7 µM (active)
SMILES: COc1ccc(NS(=O)(=O)c2cccc(C(=O)N/N=C/c3c(F)c(F)c(F)c(F)c3F)c2)cc1
